Measured values from ChEMBL document CHEMBL1201862, “PubChem BioAssay data set” (2004).
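Compound exposure: 48 hours, 5 concentrations, 96-well plates. GI50 = concentration required for 50% inhibition of growth.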 Calls of active or inactive are those of the source. Cut-off read from the data, not from the text of the source: active = GI50 up to about 1.1 µM and inactive = higher.

Assays:
Assay in all cases: DTP human tumour cell line panel, 48 h
[1] = tested on: HOP-18
[2] = tested on: KM-20L2
[3] = tested on: LXFL 529
[4] = tested on: M19-MEL
[5] = tested on: RXF 631
[6] = tested on: XF498
[7] = tested on: SNB-78
[8] = tested on: BT-549

SMILES | GI50 [1] | GI50 [2] | GI50 [3] | GI50 [4] | GI50 [5] | GI50 [6] | GI50 [7] | GI50 [8]
Cc1cnc2c(c1)C(=O)C1=C(OC(C)(C)CC1O)C2=O (stereo not given) | 15.8 µM (inactive) | 17.7 µM (inactive) | 16.2 µM (inactive) | 3.1 µM (inactive) | > 10 µM (inactive) | 19.5 µM (inactive) |  | 
C=CC1(C)CC(=O)C2(O)C(C)(O1)C(OC(C)=O)C(O)C1C(C)(C)CCC(O)C12C (stereo not given) | 41.3 µM (inactive) | 110 µM (inactive) | > 100 µM (inactive) | 104 µM (inactive) | > 100 µM (inactive) | 61.8 µM (inactive) | 5.4 µM (inactive) | 
C=CCNC1=NC(=O)C(CC(=O)Nc2ccc([N+](=O)[O-])cc2[N+](=O)[O-])S1 (stereo not given) | > 100 µM (inactive) | > 100 µM (inactive) | > 100 µM (inactive) | > 100 µM (inactive) | > 100 µM (inactive) | > 100 µM (inactive) | > 100 µM (inactive) | 
CSc1ccc(C2OC(=O)c3ccccc32)c2ccccc12 (stereo not given) | 40.6 µM (inactive) | 67 µM (inactive) | 58.3 µM (inactive) | > 100 µM (inactive) | > 100 µM (inactive) | 61.8 µM (inactive) | 46.5 µM (inactive) | 
C=C(C)[C@H]1CC[C@@]2(C)C(C1)[C@H](C)CC[C@@H]2O (stereo not given in full) | > 100 µM (inactive) | > 100 µM (inactive) | > 100 µM (inactive) | > 100 µM (inactive) | > 100 µM (inactive) | > 100 µM (inactive) | > 100 µM (inactive) | 
CCCCCCCCCCCCCC(=O)NO | 34.4 µM (inactive) | 7.64 µM (inactive) | 5.14 µM (inactive) | 24 µM (inactive) | 10.9 µM (inactive) | 24.4 µM (inactive) | 19.8 µM (inactive) | 1.16 µM (inactive)
CC1=C(C(=O)Nc2ccccc2)C(c2cc(Cl)cc(Cl)c2)C(C(=O)Nc2ccccc2)=C(C)N1 | 12.5 µM (inactive) | 9.06 µM (inactive) | 3.77 µM (inactive) | 10.4 µM (inactive) | 18 µM (inactive) | 13.4 µM (inactive) | 17.1 µM (inactive) | 
CNC(=S)NNC(=O)c1c(C)nc2sccn12 | 0.414 µM (active) | > 100 µM (inactive) | > 100 µM (inactive) | > 100 µM (inactive) | > 100 µM (inactive) | > 100 µM (inactive) |  | 
CCC(=O)OC[n+]1ccc2c(C)c3[nH]c4ccccc4c3c(C)c2c1 | < 0.01 µM (active) | 0.504 µM (active) | 0.413 µM (active) | 0.681 µM (active) | 0.504 µM (active) | 1.88 µM (inactive) | 1.29 µM (inactive) | 
Cc1ccccc1-c1c(N)nc(N)nc1C(=O)Nc1nccs1 | > 100 µM (inactive) | > 100 µM (inactive) | > 100 µM (inactive) | > 100 µM (inactive) | > 100 µM (inactive) | > 100 µM (inactive) | > 100 µM (inactive) | 
O=C(OCC1CO1)c1cccs1 (stereo not given) |  | > 100 µM (inactive) | > 100 µM (inactive) | > 100 µM (inactive) | > 100 µM (inactive) | > 100 µM (inactive) | > 100 µM (inactive) | 
